The first test has as its target T1, Zcchc11 enzyme (Homo sapiens, UniProt Q5TAX3).
T1 construct: made in house; host or cells: HEK293 cells (Zcchc11); E. coli Rosetta II (LIN28A)
T1 sequence (Q5TAX3 212-1420): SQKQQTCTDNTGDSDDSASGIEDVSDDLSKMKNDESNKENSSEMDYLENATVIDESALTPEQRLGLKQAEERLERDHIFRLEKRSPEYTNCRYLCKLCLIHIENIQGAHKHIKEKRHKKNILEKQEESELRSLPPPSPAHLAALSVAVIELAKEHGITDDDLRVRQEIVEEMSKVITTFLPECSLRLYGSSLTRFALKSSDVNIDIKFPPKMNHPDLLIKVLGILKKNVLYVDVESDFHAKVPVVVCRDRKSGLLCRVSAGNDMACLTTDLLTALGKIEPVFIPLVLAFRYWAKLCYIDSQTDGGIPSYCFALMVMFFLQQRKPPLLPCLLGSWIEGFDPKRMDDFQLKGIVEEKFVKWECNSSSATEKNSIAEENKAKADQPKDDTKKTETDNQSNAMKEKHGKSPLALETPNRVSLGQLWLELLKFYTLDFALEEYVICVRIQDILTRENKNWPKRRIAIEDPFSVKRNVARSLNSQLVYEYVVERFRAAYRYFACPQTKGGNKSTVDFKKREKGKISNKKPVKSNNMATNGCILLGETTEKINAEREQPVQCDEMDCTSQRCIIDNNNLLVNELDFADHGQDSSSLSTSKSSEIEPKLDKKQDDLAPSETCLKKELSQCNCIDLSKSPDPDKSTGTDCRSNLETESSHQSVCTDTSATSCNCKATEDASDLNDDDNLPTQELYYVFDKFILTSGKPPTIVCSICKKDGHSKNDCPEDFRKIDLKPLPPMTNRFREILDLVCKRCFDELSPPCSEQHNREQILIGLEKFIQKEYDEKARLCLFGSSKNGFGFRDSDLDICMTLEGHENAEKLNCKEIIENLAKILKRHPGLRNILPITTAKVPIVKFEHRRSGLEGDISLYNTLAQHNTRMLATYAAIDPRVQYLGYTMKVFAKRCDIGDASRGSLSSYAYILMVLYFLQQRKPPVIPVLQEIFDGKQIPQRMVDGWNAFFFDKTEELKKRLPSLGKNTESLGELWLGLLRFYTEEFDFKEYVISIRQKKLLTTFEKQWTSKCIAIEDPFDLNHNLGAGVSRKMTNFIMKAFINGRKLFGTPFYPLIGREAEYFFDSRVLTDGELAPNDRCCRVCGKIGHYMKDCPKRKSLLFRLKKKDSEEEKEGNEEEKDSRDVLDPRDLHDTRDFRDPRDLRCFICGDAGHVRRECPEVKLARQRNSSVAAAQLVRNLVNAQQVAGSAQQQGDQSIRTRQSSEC
The experiment in a line: TUTase assay (Zcchc11 assay, Lin28a-dependent polyuridylation of pre-let-7). The class given is biochemical. The note with it: LIN28A 10 nM, Zcchc11 0.2 nM, 5′-fluorescein pre-let-7 miRNA 2 nM, UTP 5 uM, room temperature, 30 minutes pre-incubation; read-out: Potency Lin28a-dep Z11 IC50. In a few lines:
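Potency is measured as inhibition of LIN28A-driven U-tail addition to 2 nM pre-let-7 by 0.2 nM HEK293-derived Zcchc11 fragment with 5 uM UTP at room temperature. Tail growth appears as fluorescein quenching by an annealing rhodamine-A20 probe.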
`COc1ccc(Cl)c(OC[C@H]2C[C@@H]3C[C@@H]3N2c2cc3c(cc2F)c(=O)c(C(=O)O)cn3-c2ccc(N3CC(N(C)C)C3)nc2)n1` [Example 70, 7-[(3R)-3-{[(3-chloro-6-methoxypyridin-2-yl)oxy]methyl}-2-azabicyclo[3.1.0]hexan-2-yl]-1-{6-[3-(dimethylamino)azetidin-1-yl]pyridin-3-yl}-6-fluoro-4-oxo-1,4-dihydroquinoline-3-carboxylic acid]: the half-inhibitory concentration (IC50) was no more than 1000 nM.

The test is the same for the next values; noted with them: Lin28a-dependent Zcchc11 (Z11) TUTase activity; read-out: Potency Lin28a-dep Z11 IC50.
Regarding `CS(=O)(=O)Nc1ccc(-n2cc(C(=O)O)c(=O)c3cc(F)c(N4CCC[C@@H]4COc4ccccn4)cc32)cc1` [Compound 148, (R)-6-fluoro-1-(4-(methyl-sulfonamido)phenyl)-4-oxo-7-(2-((pyridin-2-yloxy)methyl)pyrrolidin-1-yl)-1,4-dihydro-quinoline-3-carboxylic acid], the concentration for half-maximal inhibition (IC50) is no more than 1000 nM.

For `CC1(n2cc(C(=O)O)c(=O)c3cc(Cl)c(N4CCC4COc4ccccn4)cc32)CC1` (stereo not shown) [Compound 108, 6-chloro-1-(1-methyl-cyclopropyl)-4-oxo-7-(2-((pyridin-2-yloxy)methyl)azetidin-1-yl)-1,4-dihydro-quinoline-3-carboxylic acid], the IC50 was in the range of 10000 to 50000 nM.

Consider `Cc1cccnc1OC[C@H]1CCCN1c1cc2c(cc1F)c(=O)c(C(=O)O)cn2-c1ccc(O)c(Cl)c1` [Compound 122, (R)-1-(3-chloro-4-hydroxy-phenyl)-6-fluoro-7-(2-(((3-methylpyridin-2-yl)oxy)methyl)pyrrolidin-1-yl)-4-oxo-1,4-dihydro-quinoline-3-carboxylic acid], for which the IC50 was no more than 1000 nM.

Take `O=C(O)c1cn(-c2ccc(O)cc2)c2cc(N3CCC[C@@H]3Cn3ccc4cccnc43)c(F)cc2c1=O` [Compound 113, (R)-7-(2-((1H-pyrrolo[2,3-b]pyridin-1-yl)methyl)pyrrolidin-1-yl)-6-fluoro-1-(4-hydroxy-phenyl)-4-oxo-1,4-dihydro-quinoline-3-carboxylic acid]: the concentration for half-maximal inhibition (IC50) was no more than 1000 nM.

Still in this test, the particulars now being: Lin28a-dependent Zcchc11 (Z11) TUTase assay; read-out: Potency Lin28a-dep Z11 IC50.
`CN(C)C1CN(c2cc(-n3cc(C(=O)O)c(=O)c4cc(Cl)c(N5CCC[C@@H]5COc5ccccn5)cc43)ccn2)C1` [Example 564, (R)-6-chloro-1-(2-(3-(dimethylamino)azetidin-1-yl)pyridin-4-yl)-4-oxo-7-(2-((pyridin-2-yloxy)methyl)pyrrolidin-1-yl)-1,4-dihydroquinoline-3-carboxylic acid]: the half-maximal inhibitory concentration (IC50) was no more than 1000 nM.

As for `CNCCN1CCC(n2cc(C(=O)O)c(=O)c3cc(Cl)c(N4CCC[C@@H]4COc4ncccc4Cl)cc32)CC1` [Example 502, (R)-6-chloro-7-(2-(((3-chloropyridin-2-yl)oxy)methyl)pyrrolidin-1-yl)-1-(1-(2-(methyl-amino)ethyl)piperidin-4-yl)-4-oxo-1,4-dihydroquinoline-3-carboxylic acid], the IC50 lay in the range of 1000 to 10000 nM.

As to `COc1ccc(C2C[C@H](COc3nc(OC)ccc3Cl)N(c3cc4c(cc3Cl)c(=O)c(C(=O)O)cn4-c3ccc(N4CC(N(C)C)C4)nc3)C2)cn1` (stereo partly drawn) [Example 636, 6-chloro-7-((2R)-2-(((3-chloro-6-methoxypyridin-2-yl)oxy)methyl)-4-(6-methoxypyridin-3-yl)pyrrolidin-1-yl)-1-(6-(3-(dimethylamino)azetidin-1-yl)pyridin-3-yl)-4-oxo-1,4-dihydroquinoline-3-carboxylic acid], the half-inhibitory concentration (IC50) is no more than 1000 nM.

As to `O=C(O)c1cn(-c2ccc(O)c(F)c2)c2cc(N3CCC[C@@H]3COc3ccccn3)c(F)cc2c1=O` [Example 385, (R)-6-fluoro-1-(3-fluoro-4-hydroxyphenyl)-4-oxo-7-(2-((pyridin-2-yloxy)methyl)pyrrolidin-1-yl)-1,4-dihydroquinoline-3-carboxylic acid], the half-maximal inhibitory concentration (IC50) was no more than 1000 nM.

Take `CN(C)C1CN(c2ccc(-n3cc(C(=O)O)c(=O)c4cc(Cl)c(N5CCC[C@@H]5COc5ncccc5Cl)cc43)cn2)C1` [Example 476, (R)-6-chloro-7-(2-(((3-chloropyridin-2-yl)oxy)methyl)pyrrolidin-1-yl)-1-(6-(3-(dimethyl-amino)azetidin-1-yl)pyridin-3-yl)-4-oxo-1,4-dihydroquinoline-3-carboxylic acid]: the concentration for half-maximal inhibition (IC50) was no more than 1000 nM.
